pEC50, pIC50: −log10 of the molar value. Like-named read-outs stand apart in the source and are kept apart here.
Key:
HCV replicon cells = assay: HCV replicon FRET assay; assay type: cell-based
Description: FRET Assay Preparation. To perform the HCV FRET screening assay, 96-well cell culture plates were used. The FRET peptide (Anaspec, Inc.) (Taliani et al., Anal. Biochem. 1996, 240, 60-67) contains a fluorescence donor, EDANS, near one end of the peptide and an acceptor, DABCYL, near the other end. The fluorescence of the peptide is quenched by […] resonance energy transfer (RET) between the donor and the acceptor, but as the NS3 protease cleaves the peptide the products are released from RET quenching and the fluorescence of the donor becomes apparent. The assay reagent was made as follows: 5× cell Luciferase cell culture lysis reagent from Promega (#E153A) diluted to 1× with dH2O, NaCl added to 150 mM final, the FRET peptide diluted to 20 uM final from a 2 mM stock.
To prepare plates, HCV replicon cells, with or without a Renilla luciferase reporter gene, were trypsinized and placed into each well of a 96-well plate with titrated test compounds added in columns 3 through 12; columns 1 and 2 contained a control compound (HCV protease inhibitor), and the bottom row contained cells without compound. The plates were then placed in a CO2 incubator at 37° C.
Assays. Subsequent to addition of the test compounds described above (FRET Assay Preparation), at various times the plate was removed and Alamar blue solution (Trek Diagnostics, #00-100) was added per well as a measure of cellular toxicity. After reading in a Cytoflour 4000 instrument (PE Biosystems), plates were rinsed with PBS and then used for FRET assay by the addition of 30 ul of the FRET peptide assay reagent described above (FRET Assay Preparation) per well. The plate was then placed into the Cytoflour 4000 instrument which had been set to 340 excite/490 emission, automatic mode for 20 cycles and the plate read in a kinetic mode. Typically, the signal to noise using an endpoint analysis after the reads was at least three-fold. Alternatively, after Alamar blue reading, plates were rinsed with PBS, 50 ul of DMEM (high glucose) without phenol red was added and plates were then used for luciferase assay using the Promega Dual-Glo Luciferase Assay System.
Compound analysis was determined by quantification of the relative HCV replicon inhibition and the relative cytotoxicity values. To calculate cytoxicity values, the average Alamar Blue fluorescence signals from the control wells were set as 100% non-toxic. The individual signals in each of the compound test wells were then divided by the average control signal and multiplied by 100% to determine […]. To calculate the HCV replicon inhibition values, an average background value was obtained from the two wells containing the highest amount of HCV protease inhibitor at the end of the assay period. These numbers were similar to those obtained from naive Huh-7 cells.
The background numbers were then subtracted from the average signal obtained from the control wells and this number was used as 100% activity. The individual signals in each of the compound test wells were then divided by the averaged control values after background subtraction and multiplied by 100% to determine percent activity. EC50 values for a protease inhibitor titration were calculated as the concentration which caused a 50% reduction in FRET or luciferase activity. The two numbers generated for the compound plate, percent cytoxicity and percent activity were used to determine compounds of interest for further analysis.

[1] = target: T1, HCV NS5B RdRp genotype 1b (Hepatitis C virus genotype 1b, UniProt Q9WMX2); assay: Modified HCV NS5B RdRp enzyme assay (preincubation protocol); assay type: biochemical
T1 construct: The protein was expressed with an 18 amino acid C-terminal truncation to enhance the solubility; made in house; host or cells: E. coli BL21(DE3), pET21a
Experimental: HCV NS5B RdRp cloning, expression, and purification. The cDNA encoding the NS5B protein of HCV, genotype 1b, was cloned into the pET21a expression vector. The protein was expressed with an 18 amino acid C-terminal truncation to enhance the solubility. The E. coli competent cell line BL21(DE3) was used for expression of the protein. Cultures were grown at 37° C. for ˜4 hours until the cultures reached an optical density of 2.0 at 600 nm. The cultures were cooled to 20° C. and induced with 1 mM IPTG. Fresh ampicillin was added to a final concentration of 50 μg/ml and the cells were grown overnight at 20° C.
Cell pellets (3 L) were lysed for purification to yield 15-24 mgs of purified NS5B. The lysis buffer consisted of 20 mM Tris-HCl, pH 7.4, 500 mM NaCl, 0.5% triton X-100, 1 mM DTT, 1 mM EDTA, 20% glycerol, 0.5 mg/ml lysozyme, 10 mM MgCl2, 15 μg/ml deoxyribonuclease I, and Complete TM protease inhibitor tablets (Roche). After addition of the lysis buffer, frozen cell pellets were resuspended using a tissue homogenizer. To reduce the viscosity of the sample, aliquots of the lysate were sonicated on ice using a microtip attached to a Branson sonicator. The sonicated lysate was centrifuged at 100,000×g for 1 hr at 4° C. and filtered through a 0.2 μm filter unit (Corning).
The protein was purified using three sequential chromatography steps: Heparin sepharose CL-6B, polyU sepharose 4B, and Hitrap SP sepharose (Pharmacia). The chromatography buffers were identical to the lysis buffer but contained no lysozyme, deoxyribonuclease I, MgCl2 or protease inhibitor and the NaCl concentration of the buffer was adjusted according to the requirements for charging the protein onto the column. Each column was eluted with a NaCl gradient which varied in length from 5-50 column volumes depending on the column type. After the final chromatography step, the resulting purity of the enzyme is >90% based on SDS-PAGE analysis. The enzyme was aliquoted and stored at −80° C.
Standard HCV NS5B RdRp enzyme assay. HCV RdRp genotype 1b assays were run in a final volume of 60 μl in 96 well plates (Costar 3912). The assay buffer is composed of 20 mM Hepes, pH 7.5, 2.5 mM KCl, 2.5 mM MgCl2, 1 mM DTT, 1.6 U RNAse inhibitor (Promega N2515), 0.1 mg/ml BSA (Promega R3961), and 2% glycerol. All compounds were serially diluted (3-fold) in DMSO and diluted further in water such that the final concentration of DMSO in the assay was 2%. HCV RdRp genotype 1b enzyme was used at a final concentration of 28 nM. A polyA template was used at 6 nM, and a biotinylated oligo-dT12 primer was used at 180 nM final concentration. Template was obtained commercially (Amersham 27-4110). Biotinylated primer was prepared by Sigma Genosys. 3H-UTP was used at 0.6 μCi (0.29 μM total UTP). Reactions were initiated by the addition of enzyme, incubated at 30° C. for 60 min, and stopped by adding 25 μl of 50 mM EDTA containing SPA beads (4 μg/μl, Amersham RPNQ 0007). Plates were read on a Packard Top Count NXT after >1 hr incubation at room temperature.
Modified HCV NS5B RdRp enzyme assay. A modified enzyme assay was performed essentially as described for the standard enzyme assay except for the following: The biotinylated oligo dT12 primer was precaptured on streptavidin-coated SPA beads by mixing primer and beads in assay buffer and incubating at room temperature for one hour. Unbound primer was removed after centrifugation. The primer-bound beads were resuspended in 20 mM Hepes buffer, pH 7.5 and used in the assay at final concentrations of 20 nM primer and 0.67 μg/μl beads. Order of addition in the assay: enzyme (14 nM) was added to diluted compound followed by the addition of a mixture of template (0.2 nM), 3H-UTP (0.6 μCi, 0.29 μM), and primer-bound beads, to initiate the reaction; concentrations given are final. Reactions were allowed to proceed for 4 hours at 30° C.
IC50 values for compounds were determined using seven different [I]. […]

T1 sequence (Q9WMX2 2420-2992): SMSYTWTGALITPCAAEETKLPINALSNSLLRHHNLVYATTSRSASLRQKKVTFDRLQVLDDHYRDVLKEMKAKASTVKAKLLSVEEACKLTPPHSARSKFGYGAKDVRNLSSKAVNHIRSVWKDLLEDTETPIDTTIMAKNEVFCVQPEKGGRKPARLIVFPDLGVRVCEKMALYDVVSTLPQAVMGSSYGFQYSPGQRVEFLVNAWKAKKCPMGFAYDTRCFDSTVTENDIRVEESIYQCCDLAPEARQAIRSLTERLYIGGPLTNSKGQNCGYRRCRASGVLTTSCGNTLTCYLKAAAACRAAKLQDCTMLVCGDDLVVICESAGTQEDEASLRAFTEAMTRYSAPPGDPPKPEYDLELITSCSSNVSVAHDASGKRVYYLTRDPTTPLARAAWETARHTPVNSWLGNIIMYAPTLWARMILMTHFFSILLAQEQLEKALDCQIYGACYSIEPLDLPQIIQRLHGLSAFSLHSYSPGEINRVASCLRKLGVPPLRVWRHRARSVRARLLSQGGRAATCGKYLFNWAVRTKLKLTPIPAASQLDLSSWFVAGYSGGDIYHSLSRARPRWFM

SMILES | pEC50 (HCV replicon cells; FRET assay) | pIC50 [1] | pEC50 (HCV replicon cells; Hepatitis C virus) | pEC50 (HCV replicon cells; Hepatitis C virus, FRET assay, read-out: EC50)
COc1ccc2c(c1)C1CC1(C(=O)N1CC(O)(C3CC3)C1)Cn1c-2c(C2CCCCC2)c2ccc(C(=O)NS(=O)(=O)N(C)C)cc21 (stereo not shown) [drawing 24] | 6.30 to 9.00 | 6.30 to 9.00 | – | –
COc1ccc2c(c1)C1CC1(C(=O)N1CC(O)(c3ccccc3)C1)Cn1c-2c(C2CCCCC2)c2ccc(C(=O)NS(=O)(=O)N(C)C)cc21 (stereo not shown) | – | 6.30 to 9.00 | 6.30 to 9.00 | –
COc1ccc2c(c1)C1CC1(C(=O)N1CC(O)(C(C)C)C1)Cn1c-2c(C2CCCCC2)c2ccc(C(=O)NS(=O)(=O)N(C)C)cc21 (stereo not shown) | – | 6.30 to 9.00 | 6.30 to 9.00 | –
COc1ccc2c(c1)C1CC1(C(=O)N1CC(O)C1)Cn1c-2c(C2CCCCC2)c2ccc(C(=O)NS(=O)(=O)C3CC3)cc21 (stereo not shown) [drawing 16] | – | 6.30 to 9.00 | – | 6.30 to 9.00
COc1ccc2c(c1)C1CC1(C(=O)N1CC(O)C1)Cn1c-2c(C2CCCCC2)c2ccc(C(=O)NS(=O)(=O)C3CC3)cc21 (stereo not shown) [drawing 27] | – | 6.30 to 9.00 | – | –
COc1ccc2c(c1)C1CC1(C(=O)N1CC(O)C1)Cn1c-2c(C2CCCCC2)c2ccc(C(=O)NS(=O)(=O)N(C)C)cc21 (stereo not shown) [drawing 17] | – | 6.30 to 9.00 | 6.30 to 9.00 | –
COc1ccc2c(c1)C1CC1(C(=O)N1CC(O)(C3CC3)C1)Cn1c-2c(C2CCCCC2)c2ccc(C(=O)NS(=O)(=O)N(C)C)cc21 (stereo not shown) [drawing 21] | – | 6.30 to 9.00 | 6.30 to 9.00 | –
COc1ccc2c(c1)C1CC1(C(=O)N1CC(O)(C(F)(F)F)C1)Cn1c-2c(C2CCCCC2)c2ccc(C(=O)NS(=O)(=O)N(C)C)cc21 (stereo not shown) [drawing 25] | 6.30 to 9.00 | 6.30 to 9.00 | – | –
COc1ccc2c(c1)C1CC1(C(=O)N1CC(O)(c3ccc(F)cc3)C1)Cn1c-2c(C2CCCCC2)c2ccc(C(=O)NS(=O)(=O)N(C)C)cc21 (stereo not shown) | – | 6.30 to 9.00 | 6.30 to 9.00 | –
COc1ccc2c(c1)C1CC1(C(=O)N1CC(C)(O)C1)Cn1c-2c(C2CCCCC2)c2ccc(C(=O)NS(=O)(=O)N(C)C)cc21 (stereo not shown) | – | > 7.70 | 6.30 to 9.00 | –
COc1ccc2c(c1)C1CC1(C(=O)N1CC(O)C1)Cn1c-2c(C2CCCCC2)c2ccc(C(=O)NS(=O)(=O)N(C)C)cc21 (stereo not shown) [drawing 28] | – | 6.30 to 9.00 | – | –
COc1ccc2c(c1)C1CC1(C(=O)N1CC(O)(C(F)(F)F)C1)Cn1c-2c(C2CCCCC2)c2ccc(C(=O)NS(=O)(=O)N(C)C)cc21 (stereo not shown) [drawing 23] | – | 6.30 to 9.00 | 6.30 to 9.00 | –
